Here are results for one molecule from US6482402B1, “Antimicrobial compositions and methods” (GelTex Pharmaceuticals, Inc., priority 1999, dated 2002).

In experiment [1] the test system is C. parvum oocysts. The experiment can be described thus: In vitro C. parvum infectivity in Madin Darby Bovine Kidney cells (fluorescent antibody count of infected cells). The class given is cell-based, Cryptosporidium parvum. The conditions noted are these: MDBK cells, 46 hours of infection, means of 12 high powered fields. Here is the method:
Activity of polyfensin compounds for Cryptosporidium parvum in vitro. Combination therapy of Polymer B with paromomycin Madin Darby Bovine Kidney cells were infected with C. parvum oocysts in the presence of media alone, paromomycin (2 and 0.25 mg/ml), Polymer B (0.01 or 0.001 mg/ml) or Polymer B (0.01 or 0.001 mg/ml) plus paromomycin at 0.25 mg/ml. After 4 hours of treatment, polymer was removed and replaced with media. After 46 hours of infection the monolayers were fixed, stained with fluorescent antibodies to cryptosporidium, and the numbers of infected cells were enumerated. Parasite numbers represent the means of 12 high powered fields, and numbers of parasites were normalized relative to treatment with media alone (arbitrarily set at 100). […] In vitro Combination therapy of Polymer A with paromomycin. Madin Darby Bovine kidney cells were infected with C. parvum oocysts in the presence of media alone, paromomycin (2 and 0.25 mg/ml), Polymer A (0.01 or 0.001 mg/ml) or Polymer A (0.0 1 or 0.00 1 mg/ml plus paromomycin at 0.25 mg/ml). After 4 hours of treatment, polymer was removed and replaced with media. After 46 hours of infection the monolayers were fixed, stained with fluorescent antibodies to cryptosporidium, and the numbers of infected cells were enumerated. Parasite numbers represent the means of 12 high powered fields, and numbers of parasites were normalized relative to treatment with media alone (arbitrarily set at 100).

Experiment [2] relates to C. parvum oocysts. The experiment can be described thus: In vivo oocyst shedding in C. parvum infected SCID mice. Particulars: SCID mice infected day 0; prm alone 500 mg/kg/day by oral gavage from day 7; fecal smears, acid fast staining; water alone 25. As for the experimental part:
In vivo activity of selected polymers in combination with parmomycin
Severe combined immunodeficient mice (SCID) were infected with C. parvum oocysts on day 0. On day 7, mice were treated with water or Polymers A, E and D by delivery in maple flavored drinking water at 2000 mg/kg/day. For each treatment, mice additionally received water or 500 mg/kg/day paromomycin (prm) by oral gavage. Oocyst shedding was quantitated in fecal smears by acid fast staining. Average numbers of oocysts shed were as follows: Treatment with water alone, 25; treatment with prm alone 12. Treatment with polymers alone gave modest changes in oocysts shedding and ranged from ˜20% reduction in oocysts; to a ˜20% increase in shedding, relative to treatment with water alone. Combination of polymers with prm gave reductions in oocysts in the range of 50-90% relative to treatment with prm alone.

Where “and” joins values, the source holds several entries; their conditions need not be identical. Equal entries are not always repeated.

For the molecule `NC[C@@H]1O[C@H](O[C@H]2[C@@H](O)[C@H](O[C@@H]3[C@@H](O)[C@H](N)C[C@H](N)[C@H]3O[C@H]3O[C@H](CO)[C@@H](O)[C@H](O)[C@H]3N)O[C@@H]2CO)[C@H](N)[C@@H](O)[C@@H]1O` [paromomycin], the “parasite numbers normalized relative to treatment with media alone (arbitrarily set at 100)” value with C. parvum oocysts [1] (paromomycin alone at 0.25 mg/ml) was 61.5 and 73.0; with C. parvum oocysts [1] (paromomycin alone at 2 mg/ml), 15.3; in the experiment with C. parvum oocysts [1] (paromomycin alone at 2 mg/ml, listed as parmomycin), 15.4. In addition, the “Average numbers of oocysts shed” value in the experiment with C. parvum oocysts [2] is on record as 12.
